{"source": "patent US10703779B2", "about": "“Oxadiazole cyclic peptides” (THE GOVERNING COUNCIL OF THE UNIVERSITY OF TORONTO, priority 2015, dated 2020)", "key": {"[1]": {"conditions": "multicomponent bond"}, "[2]": {"conditions": "multicomponent bond; 18-membered ring; propionaldehyde/(N-isocyanimino)triphenylphosphorane; 25.0 °C"}, "[3]": {"assay": "passive artificial membrane permeability (PAMPA) assay", "type": "in vitro ADME", "conditions": "FIG. 10, oxadiazole-containing macrocycles (entries 1-7) compared with homodetic counterparts (entries 8-12)", "excerpt": "Passive membrane permeability is an important property for the development of new therapeutics. […] Using this analysis method a −log Pe value <6.0 is indicitive of a passively membrane permeable compound, while a −log Pe>6.0 is indicative of a poorly permeable or non-permeable compound. […] (entry 12)."}, "[4]": {"conditions": "21-membered ring, propionaldehyde/(N-isocyanimino)triphenylphosphorane, DCE/MeCN 1:1, 25.0 mM, 50.0 °C"}, "[5]": {"conditions": "18-membered ring, propionaldehyde/(N-isocyanimino)triphenylphosphorane, DCE/MeCN 1:1, 25.0 mM, 50.0 °C, 2 steps"}, "[6]": {"conditions": "15-membered ring, propionaldehyde/(N-isocyanimino)triphenylphosphorane, DCE/MeCN 1:1, 25.0 mM, 50.0 °C"}, "[7]": {"conditions": "21-membered ring, propionaldehyde/(N-isocyanimino)triphenylphosphorane, DCE/MeCN 1:1, 25.0 mM, 50.0 °C, 2 steps"}, "[8]": {"conditions": "18-membered ring, propionaldehyde/(N-isocyanimino)triphenylphosphorane, DCE/MeCN 1:1, 20.0 mM, 50.0 °C"}, "[9]": {"conditions": "18-membered ring, phenylacetaldehyde/(N-isocyanimino)triphenylphosphorane, DCE/MeCN 1:1, 25.0 mM, 50.0 °C, 2 steps"}, "[10]": {"conditions": "18-membered ring, propionaldehyde/(N-isocyanimino)triphenylphosphorane, DCE/MeCN 1:1, 25.0 mM, 50.0 °C"}}, "note": "Several values for one entry are separate records, joined by “and”; a condition that tells them apart may be missing. Equal values may be shown once. Read-outs that look alike come from different tables or passages of the source."}
{"substance": "PGRGDWA", "values": [{"measurement": "ring closure, isolated yield", "setting": "[1]; 24-membered ring, propionaldehyde/(N-isocyanimino)triphenylphosphorane, DCE/MeCN 1:1, 25.0 mM, 50.0 °C, 2 steps", "value": 22, "unit": "%"}]}
{"substance": "PGLGFA", "values": [{"measurement": "ring closure, isolated yield", "setting": "[1]; [4]", "value": 41, "unit": "%"}]}
{"substance": "PLDFA", "values": [{"measurement": "ring closure, isolated yield", "setting": "[1]; [5]", "value": 52, "unit": "%"}]}
{"substance": "PWASG", "values": [{"measurement": "ring closure, isolated yield", "setting": "[1]; [5]", "value": 28, "unit": "%"}]}
{"substance": "AGFA", "values": [{"measurement": "ring closure, isolated yield", "setting": "[1]; 15-membered ring", "value": 32, "unit": "%"}, {"measurement": "ring closure, isolated yield", "setting": "[1]; [6]", "value": 24, "unit": "%"}]}
{"substance": "PAFA", "values": [{"measurement": "ring closure, isolated yield", "setting": "[1]; [6]", "value": 23, "unit": "%"}]}
{"substance": "ALFA", "values": [{"measurement": "ring closure, isolated yield", "setting": "[1]; [6]", "value": 20, "unit": "%"}]}
{"substance": "PDAWG", "values": [{"measurement": "ring closure, isolated yield", "setting": "[1]; [5]", "value": 22, "unit": "%"}]}
{"substance": "PFLLF", "values": [{"measurement": "ring closure, isolated yield", "setting": "[1]; 18-membered ring, propionaldehyde/(N-isocyanimino)triphenylphosphorane, DCE/MeCN 1:1, 16.7 mM, 50.0 °C", "value": 25, "unit": "%"}]}
{"substance": "PGLGF", "values": [{"measurement": "ring closure, isolated yield", "setting": "[1]; 18-membered ring", "value": 32, "unit": "%"}, {"measurement": "ring closure, isolated yield", "setting": "[1]; 18-membered ring, phenylacetaldehyde/(N-isocyanimino)triphenylphosphorane, DCE/MeCN 1:1, 25.0 mM, 50.0 °C", "value": 29, "unit": "%"}, {"measurement": "ring closure, isolated yield", "setting": "[1]; 18-membered ring, propionaldehyde/(N-isocyanimino)triphenylphosphorane, DCE/MeCN 1:1, 50.0 mM, 25.0 °C", "value": 68, "unit": "%"}, {"measurement": "ring closure, conversion", "setting": "[2]", "value": 100, "unit": "%"}]}
{"substance": "PDAWYG", "values": [{"measurement": "ring closure, isolated yield", "setting": "[1]; [7]", "value": 28, "unit": "%"}]}
{"substance": "PSarLGF", "values": [{"measurement": "ring closure, isolated yield", "setting": "[1]; 18-membered ring, α-MIDA-borylaldehyde/(N-isocyanimino)triphenylphosphorane, DCE/MeCN 1:1, 25.0 mM, 50.0 °C", "value": 28, "unit": "%"}]}
{"substance": "PGLAF", "values": [{"measurement": "ring closure, isolated yield", "setting": "[1]; [8]", "value": 23, "unit": "%"}]}
{"substance": "PRGDA", "values": [{"measurement": "ring closure, isolated yield", "setting": "[1]; [5]", "value": 70, "unit": "%"}]}
{"substance": "PSarLGFA", "values": [{"measurement": "ring closure, isolated yield", "setting": "[1]; [4]", "value": 42, "unit": "%"}]}
{"substance": "PSLYG", "values": [{"measurement": "ring closure, isolated yield", "setting": "[1]; [9]", "value": 22, "unit": "%"}]}
{"substance": "GPLGA", "values": [{"measurement": "ring closure, isolated yield", "setting": "[1]; 18-membered ring", "value": "13% and 25%"}, {"measurement": "ring closure, isolated yield", "setting": "[1]; [10]", "value": 20, "unit": "%"}]}
{"substance": "APLGK", "values": [{"measurement": "ring closure, isolated yield", "setting": "[1]; [5]", "value": 60, "unit": "%"}]}
{"substance": "PFDLA", "values": [{"measurement": "ring closure, isolated yield", "setting": "[1]; [5]", "value": 45, "unit": "%"}]}
{"substance": "PASWKG", "values": [{"measurement": "ring closure, isolated yield", "setting": "[1]; [7]", "value": 7, "unit": "%"}]}
{"substance": "PSLYA", "values": [{"measurement": "ring closure, isolated yield", "setting": "[1]; [5]", "value": 24, "unit": "%"}]}
{"substance": "cyclo(PFLLFA)", "values": [{"measurement": "passive membrane permeability (result in words)", "setting": "[3]", "value": "single exception"}]}
{"substance": "PFLDA", "values": [{"measurement": "ring closure, isolated yield", "setting": "[1]; 18-membered ring, acetone/(N-isocyanimino)triphenylphosphorane, DCE/MeCN 1:1 + acetone 30% v/v, 25.0 mM, 50.0 °C, 2 steps", "value": 10, "unit": "%"}]}
{"substance": "APLGS", "values": [{"measurement": "ring closure, isolated yield", "setting": "[1]; [5]", "value": 70, "unit": "%"}]}
{"substance": "PSWAG", "values": [{"measurement": "ring closure, isolated yield", "setting": "[1]; [9]", "value": 26, "unit": "%"}]}
{"substance": "APLGA", "values": [{"measurement": "ring closure, isolated yield", "setting": "[1]; [10]", "value": 15, "unit": "%"}]}
{"substance": "PALAF", "values": [{"measurement": "ring closure, isolated yield", "setting": "[1]; [8]", "value": 20, "unit": "%"}]}
{"substance": "PALGF", "values": [{"measurement": "ring closure, isolated yield", "setting": "[1]; [8]", "value": 25, "unit": "%"}]}
